Source: US12168008B2, “Oxabicycloheptanes for modulation of immune response” (LIXTE BIOTECHNOLOGY, INC., priority 2016, dated 2024)

Tests used:
[1] = test system: progressive solid tumors; assay: Phase I study: clinical activity (RECIST 1.1); type: in vivo, human
Method: Response to treatment was assessed using RECIST version 1.1. All patients with measurable disease, who completed 2 cycles of LB-100 and had at least 1 post-baseline tumor assessment, were evaluable for efficacy. Patients receiving any LB-100 were evaluable for safety. The severity of adverse events and laboratory abnormalities is reported according to NCI-CTCAE version 4.0 and coded using Medical Dictionary for Regulatory Activities.

[2] = test system: CD4/8 effector cells; assay: T cell subsets in naive mice (FIG. 13-14); type: in vivo, mouse
Method: FIG. 13A. […] Low dose of LB treatment in vivo induced more CD8 (left) and CD4 (right) effector T cells in lymph node. 5 mice per group. Control—PBS, Low dose—0.16 mg/kg, Medium dose—0.32 mg/kg.

[3] = test system: CD4+ T cells; assay: Human mixed lymphocyte reaction (Example 13); type: cell-based
Method: FIG. 39A. DCs were induced from purified monocytes by culturing in IL4 and GM-CSF for 7 days. 10^5 purified CFSE labelled CD4+ T cells were then co-cultured with 10^4 allogenic DCs in the presence of a titration of LB-100 in duplicates or triplicates for 5 days. LB-100 was replenished on day 3. Supernatants were collected on day 5 and measured for IFN-γ production. FACS analysis was performed on the cultured cells.
In vitro activity of LB-100 in human mixed lymphocytes reactions: To further confirm the immune-modulating effect of LB-100 has clinical utility, mixed lymphocyte reactions (MLRs) were performed using PBMC from healthy human donors. Monocyte derived dendritic cells were co-cultured with allogenic CD4+ T cells labelled with cytosolic dye CFSE. LB-100 was given on the day of co-culture (Day 0) and again on Day 3. Proliferation and IFN-γ secretion by CD4 T cells were assessed on Day 5 (FIG. 39A). There was a significant increase in CD4 T cell proliferation, as measured by the percentage of dividing cells, with LB-100 treatment at 1 μM (31% compared to 20% in controls) (FIG. 39B). There was also a trend towards increased proliferation at lower LB100 concentrations (in the sub-micromolar range). […] Also examined was the effect of lineage differentiation in CD4 T cells by labeling for T-bet. […] Next tested whether LB-100 could enhance IFN-γ secretion in vitro in combination with PD1 blockade using Nivolumab. A similar MLR assay was performed with LB-100.
Human mixed lymphocyte reaction—as previously described in 39. Dendritic cells (DCs) were generated by culturing monocytes isolated from PBMC using a monocyte isolation kit (StemCell) in vitro for 7 days with 500U/ml interleukin-4 (IL-4) and 250 U/ml GM-CSF (R&D Systems). CD4+ T cells (1×10^5) isolated with CD4 isolation kit (StemCell) and labeled with CFSE (ThermoFisher) were co-cultured with allogeneic DCs (1×10^4). At the initiation of assay, a titration of LB-100 and/or Nivolumab was added. After 3 days, LB-100 was replenished to the final indicated concentration. After 5 days, culture supernatants were analyzed by ELISA (eBioscience) and cells were analyzed by flow cytometry. At least 3 separate donors were obtained and results of one representative donor were reported.

[4] = test system: B16F10 cells; assay: B16F10 melanoma tumor prevention model; type: in vivo, mouse; details: day 15 after tumor implantation
Method: LB-100 and aPD-1 enhance anti-tumor activity in B16 melanoma without histologic evidence of autoimmunity: It was next determined whether LB-100/aPD-1 combination was effective against other aPD-1 resistant tumor. In a tumor prevention model, 6-8 weeks old C57BL/6 mice were randomized into four treatment groups: PBS, LB-100, aPD-1 and combination. B16F10 cells (2.5×10^5) were inoculated 2 days after initiation of treatment subcutaneously in the right thoracic flank. Treatments were administered every two days following survival (FIG. 34A). By day 15 after tumor implantation, there was no difference between control and the single agent arms.
Syngeneic tumor models—Mice were maintained and experiments were conducted with the approval of the NINDS Animal Use and Care Committees. For CT26 tumors: BALB/c (6-8 wk old) were purchased from Charles River Laboratory. CT26 cells (0.5×10^6) were injected into the right flank subcutaneously. […] Treatments were given every 2 days for 30 days. […]

[5] = test system: mouse B16 melanoma; assay: B16 melanoma tumor-bearing mice (FIG. 12, 17-19); type: in vivo
Method: FIG. 12. […] Treatment was started on the same day of tumor implantation. Control—PBS, Low dose—0.16 mg/kg, Medium dose—0.32 mg/kg.
FIG. 17A. CD8+CD44+ effector T cells are increased with PP2A inhibitor LB-100 treatment. Percentage of CD8+CD44+T effector cells population in tumor draining lymph node from B16 tumor bearing mice treated with LB-100 or PBS. 5 mice per group.

[6] = test system: PP2A; assay: PP2A phosphatase assay in activated T cells; type: cell-based, mouse; details: 3 hours after stimulation with CD3 and CD28; greater effect in CD8
Method: LB-100 inhibits PP2A activity and enhances mTORC1 activation: PP2A enzymatic activity of isolated CD4 and CD8 cells from mice splenocytes were measured 3 hours after in vitro stimulation with plated CD3 and soluble CD28.
PP2A phosphatase assay—Mouse CD4+ and CD8+ T cells were isolated with CD4 and CD8 isolation kit (StemCell) respectively. Cells were activated using immobilized anti-CD3 (10 ug/ml) and soluble anti-CD28 (2 ug/ml) for three hour. PP2A activity was then evaluated after immunoprecipitation using a malachite green phosphatase assay kit as per the manufacturer's instructions (EMD Millipore).

[7] = of 20 patients with measurable disease

## CN1CCN(C(=O)C2C(C(=O)O)[C@H]3CC[C@@H]2O3)CC1 (stereo partly shown) [LB-100]
[1]; atypical carcinoid of the lung, 0.83 mg/m^2
  duration of partial response or stability of disease: 5 cycles
[1]; breast cancer, 1.25 mg/m^2
  duration of partial response or stability of disease: 4 cycles
[1]; chondrosarcoma, 3.1 mg/m^2
  duration of partial response or stability of disease: 8 cycles
[1]; fibrosarcoma, started at 3.1 mg/m^2, two dose reductions
  duration of partial response or stability of disease: 12 cycles
[1]; malignant thymoma, 1.75 mg/m^2
  duration of partial response or stability of disease: 8 cycles
[1]; [7]
  no progression of indicator lesion(s): 16 patients
  significant increases in the size of indicator lesion(s) by RECIST criteria: 3 patients
[1]; ovarian cancer, 1.75 mg/m^2
  duration of partial response or stability of disease: 6 cycles
[1]; pancreatic cancer, 0.83 mg/m^2
  duration of partial response or stability of disease: 15 cycles
[1]; pancreatic carcinoma, noted after 10 cycles, maintained 5 more cycles, of 20 patients
  partial response: One and one
[1]; testicular cancer, 1.25 mg/m^2
  duration of partial response or stability of disease: 5 cycles
[2]; low dose
  PD-1 expressing CD8+ T cells in blood: reduced PD-1 expressing CD8+ T cells in blood
[2]; low dose 0.16 mg/kg
  CD4/8 effector cells in lymph node of naïve mice: increased CD4/8 effector cells
[2]; medium dose
  PD-1 expressing CD8+ T cells in spleen: reduced PD-1 expressing CD8+ T cells in spleen
[3]; 0.2 μM
  enhancement of IFN-γ release: 3.5 fold
[3]; 1 μM
  T-bet expression in CD4 T cells: significantly increased
  enhancement of IFN-γ release: 4 fold
[3]; 1 μM, day 5, controls 20%
  CD4 T cell proliferation, percentage of dividing cells: 31%
[3]; 5 μM
  CD4 T cell proliferation: impaired
[4]
  tumor size, single agent arms vs control: no difference
[5]; every two days for 8 doses from day of implantation, 0.16 and 0.32 mg/kg
  B16 melanoma tumor growth: reduced mouse B16 melanoma tumor growth significantly
[5]; vs PBS, 5 mice per group
  CD8+CD44+ effector T cells in tumor draining lymph node: increased
  CD44+CD62L− CD4 effector T cells in lymph node: Increased
  CD44+CD62L− CD8 effector T cells in lymph node: Increased
[6]
  PP2A enzymatic activity in CD4 and CD8 cells: dose dependent decrease
